Reference: patent US5859019A, “Methods for protecting against cardiac ischemia by administering adenosine A2a receptor antagonists” (priority 1997, dated 1999)

What was measured:
Assay type in all cases: cell-based
[1] = test system: ventricular cells cultured from chick embryos; experiment: Cyclic AMP level in cultured ventricular cells (radioimmunoassay); settings: Gallus gallus; isoproterenol 0.3 μM, forskolin 1 μM; n=6, ±S.E.; read-out: % increase in cAMP level
Experimental: (§1) Determination of ^45 Ca uptake was made according to a modification of previously described method (20). Cultures were incubated with L-(3, 4, 5-^3 H, N)-leucine (152.2 Ci/mmol) for a 24 hour prior to ^45 Ca uptake. [^3 H] leucine incorporated into the cellular protein allowed normalization of ^45 Ca content to mg cell protein. After incubation with ^45 Ca-containing medium, cells were then washed free of ^45 Ca and solubilized for 2 hours with 1% sodium dodecyl sulfate and 10 mM sodium borate and the levels of ^3 H and ^45 Ca were determined. For all data comparing the effect of different agents on ^45 Ca uptake, one-way ANOVA analysis followed by group comparison with t-test was carried out at each time point of the ^45 Ca uptake. Cyclic AMP level was determined according to a previously described radioimmunoassay (27).

[2] = test system: ventricular cells cultured from chick embryos; experiment: Hypoxia-induced injury / preconditioning of cultured ventricular cells (% cells killed, CK released); settings: CGS21680 1 μM; for Ability to replace preconditioning hypoxia (protection against injury by ninety-minute hypoxia; % cells killed, CK released): agent given for 5 min in place of preconditioning hypoxia, before 90-min hypoxia, adenosine 10 μM, R-PIA 10 μM; for Effect on protection by preconditioning hypoxia (% cells killed, CK released): agent present during five-minute preconditioning hypoxia, CSC 1 μM, 8-SPT 100 μM, isoproterenol 0.3 μM, forskolin 1 μM, BayK 8644 0.1 μM
Experimental: Ventricular cells were cultured from chick embryos 14 days in ovo, according to a previously described procedure (20, 27). Cells were plated at a density of 400,000 cells per ml and cultivated in a humidified 5% CO2 -95% air mixture at 37° C. […] For preconditioning studies, the medium was changed to a HEPES-buffered medium containing (mM) 139 NaCl, 4.7 KCl, 0.5 MgCl2, 0.9 CaCl2, 5 HEPES (N-2-hydroxyethylpiperazine-N'-2-ethanesulfonic acid) and 2% fetal bovine serum, pH=7.4, 37° C. before exposing cells to the various conditions at 37° C. Control cells were maintained in the HEPES-buffered media under room air. Hypoxia was produced by placing the cells in a hypoxic incubator (NuAire) where O2 was replaced by N2. The % O2 was monitored by both an oxygen Fyrite Gas Analyzer (Bacharach) and an oxygen analyzer (Model OX630, Engineered Systems & Designs). Preconditioning was induced by exposing the cells to five minutes of hypoxia, termed preconditioning hypoxia, prior to a second ninety-minute hypoxia. Cells not subjected to preconditioning were exposed to ninety minutes of hypoxia only (nonpreconditioned cells). The extracellular pH was similarly maintained at 7.4 by HEPES in both preconditioned and nonpreconditioned cells. Determination of basal level of cell injury was made after parallel incubation of control cells under normal % O2. For preconditioned and nonpreconditioned cells, determination of cell injury was made at the end of the ninety-minute hypoxic period.
The extent of hypoxia-induced injury to the ventricular cell was quantitatively determined by the percentages of cells killed and by the amount of creatine kinase (CK) released into the media. To quantitate the % cells killed, cells were exposed to a trypsin-EDTA Hanks' balanced salt solution for 10 minutes for detachment after the various treatment, followed by centrifugation (300 × g for 10 minutes) and resuspension in culture media for counting in a hemocytometer. Only live cells sedimented and the cells counted represented those that survived (29). None of the sedimented cells subsequently counted included trypan blue. […] There was no protein or CK in the culture media following a second 300 × g centrifugation of resuspended cells previously treated with trypsin-EDTA. […] In contrast, the trypsin-EDTA media from cells exposed to 90 minutes of hypoxia contained substantial amount of proteins (0.15±0.03 mg, n=9) and CK activity (16±3 unit/mg protein, n=8). […] Because trypsin may cause further proteolysis of proteins and CK, the amount of protein and CK retained by the damaged cells in the trypsin-EDTA media may not accurately reflect those associated with the damaged cells. In support of the notion that exposure to 90 minutes of hypoxia caused significant cell injury and loss of membrane integrity, there was also marked release of LDH (hypoxia-exposed cells, 35.5±2.7, unit/mg, n=8, ±S.E. vs. control cells, 6.1±0.4 unit/mg, n=8) and proteins (hypoxia-exposed cells, 0.15±0.03 mg, n=8 vs. control cells, 0.034±0.01 mg, n=8) from the cells incubated under prolonged hypoxia. Thus, the cell viability assay separated out the hypoxia-damaged from the control normoxia-exposed cells. […] The amount of CK was measured as enzyme activity (unit/mg), and increases in CK activity above the control level were determined. The percentage of cells killed was calculated as the number of cells obtained from the control group (representing cells not subjected to any hypoxia or drug treatment) minus the number of cells from the treatment group divided by number of cells in control group multiplied by 100%.
To investigate the role of adenosine in mediating the preconditioning effect, the ventricular cells, instead of being exposed to the brief hypoxia, were incubated with adenosine (10 μM) for 5 minutes prior to the ninety minute hypoxia. In adenosine-treated cells, media were replaced with adenosine-free media for ten minutes prior to a ninety-minute hypoxic exposure. […]

[3] = test system: ventricular cells cultured from chick embryos; experiment: 45Ca uptake in cultured ventricular cells; settings: isoproterenol 0.3 μM, forskolin 1 μM, BayK 8644 0.1 μM; data not shown
Experimental: as §1

Row | SMILES | activation at 0.3 µM [1] | Ability to replace preconditioning hypoxia (protection against injury by ninety-minute hypoxia; % cells killed, CK released) [2] | Effect on protection by preconditioning hypoxia (% cells killed, CK released) [2] | Calcium influx into the cultured cells [3] | activation at 1 µM [1]
1 | CC(C)NCC(O)c1ccc(O)c(O)c1 (centres unmarked) [isoproterenol] | 228 ± 31% | Neither isoproterenol, forskolin nor BayK8644 had any effect on the level of protection | caused an increase in % cells killed and amount of CK released | induced increased calcium influx | 
2 | COC(=O)C1=C(C)NC(C)=C([N+](=O)[O-])C1c1ccccc1C(F)(F)F (centres unmarked) [BayK 8644] |  | Neither isoproterenol, forskolin nor BayK8644 had any effect on the level of protection | caused an increase in % cells killed and amount of CK released | induced increased calcium influx | 
3 | C=C[C@@]1(C)CC(=O)[C@]2(O)[C@@]3(C)[C@@H](O)CCC(C)(C)[C@@H]3[C@H](O)[C@H](OC(C)=O)[C@@]2(C)O1 [forskolin] |  | Neither isoproterenol, forskolin nor BayK8644 had any effect on the level of protection | caused an increase in % cells killed and amount of CK released | induced increased calcium influx | 54.8 ± 9.7%
